Source: patent publication US20040092491A1, “Method of treating sepsis-induced ARDS” (The Research Foundation of State University of New York, priority 2002, published 2004)
Entries after “also recorded” stand apart in the source; their conditions may differ. Structures can show the parent of a compound that is named as a salt.

Columns and labels:
[1] = molecular target: T1, MMP-9 (Sus scrofa, UniProt A0A287AZD5); assay: Porcine SMA+FC model: MMP-9 in BALF; set-up: species or system pigs; settings: pig, in vivo
T1 construct: from tissue; host or cells: pig bronchoalveolar lavage fluid (BALF)
From the text: (§4) A sepsis-induced ARDS porcine model was developed. […] In addition, the protocol included a 3-day termination period, due to the severity of the ARDS associated with this model and the desire to obtain clinically relevant end-point data on all animals.

[2] = test system: pulmonary edema; assay: Rat CLP model: lung water (W/D weight ratio); format: in vivo, Sprague-Dawley rats
Method: (§1) Experimental Protocol: Rats were randomly divided into 5 groups: GROUP 1) Sham CLP+2% solution of carboxymethylcellulose (CMC; vehicle for COL-3) in saline-midline laparotomy with cecum exposed and mesentery sharply incised plus oral gavage at the time of surgery with CMC (n=6); GROUP 2) Sham CLP+COL-3 (Collagenex Pharmaceutical, Newtown, Pa.)-midline laparotomy with cecum exposed and mesentery sharply incised plus oral gavage at the time of surgery with COL-3 (30 mg/kg, n=6); GROUP 3) CLP+CMC-midline laparotomy with CLP plus oral gavage at time of surgery with CMC (n=10); GROUP 4) CLP+COL-3 single dose [SD]-midline laparotomy with CLP plus oral gavage at the time of surgery with COL-3 (30 mg/kg, n=9); GROUP 5) CLP+COL-3 multiple dose [MD]-midline laparotomy with CLP plus oral gavage at the time of surgery and at 24 hours post CLP with COL-3 (30 mg/kg each administration for a total dose of 60 mg/kg, n=15). Rats were followed for 168 hours (7 days) with survival defined as hours post-CLP and survival time of each rat recorded. Rats were sacrificed at 168 hours or immediately following death. At necropsy, the left lung was excised and its bronchus cannulated. The lung was inflated to a pressure of 4 cmH2O with 10% formalin. The cannula was clamped and the lung stored in formalin at room temperature for 24 hours. The tissue was blocked in paraffin and serial sections made for staining with hematoxylin and eosin. Additionally, the remaining paraffin section of fixed lung was used for immunohistochemical determination of MMP-2 and MMP-9.
Lung Water: Representative tissue samples from the right lung were sharply dissected free of nonparenchymal tissue. Samples were placed in a dish and weighed, dried in an oven at 65° C. for 24 h and weighed again. This was repeated until there was no weight change over a 24-h period at which time the samples were determined to be dry. Lung water was expressed as a wet to dry weight ratio (W/D).

[3] = test system: MMP-9; assay: Rat CLP model: lung tissue MMP-9 level by immunohistochemistry; format: in vivo, Sprague-Dawley rats
Method: as §1
(§2) Lung tissue MMP-2 and MMP-9 levels: The levels of alveolar tissue MMP-2 and MMP-9 was assessed by immunohistochemical analysis as described elsewhere. Briefly, four micrometer formalin fixed paraffin sections were treated with xylene to remove paraffin and hydrated. The paraffin sections were treated with 0.4% pepsin for 45 minutes at +37° C. For immunostaining VECTASTAIN™ Rabbit ABC Elite Kit (Vector Laboratories, Burlingame, Calif.) was used according to manufactures instructions. […]

[4] = test system: sepsis-induced ARDS (cecal ligation and puncture); assay: Rat cecal ligation and puncture (CLP) model of sepsis-induced ARDS: survival; format: in vivo, Sprague-Dawley rats; settings: for Mortality at 168 hours (7 days): CLP+CMC 70%
Method: (§3) Surgical Procedure: Male Sprague-Dawley rats weighing between 250-300 g were acclimatized to the laboratory environment for one week prior to surgery. Free access to food and water was available for this time period. Rats were anesthetized with intraperitoneal (IP) Ketamine (90 mg/kg)/Xylazine (10 mg/kg ). Sepsis was produced using a modification of the cecal ligation and puncture (CLP) technique described by Chaudry et al. After the abdominal fur was shaved, a 2 cm midline incision was made through the skin and peritoneum. The cecum was identified and withdrawn through the incision. The avascular portion of the mesentery was sharply incised and the cecum was ligated just below the ileocecal valve with a 3-0 silk suture, so that intestinal continuity was maintained. Using an 18 gauge needle, the cecum was perforated in two locations on the antimesenteric surface and was gently compressed until feces were extruded to ensure patency of the holes. The bowel was then returned to the abdomen and the incision was closed in 2 layers using 3-0 Prolene™ for the muscle and 2-0 silk for the skin. Each rat received 10 cc physiological saline subcutaneously immediately after the procedure and at 12 and 24 hours post-surgery. The rats were allowed to recover with water and food provided ad libitum throughout the remainder of the study.
as §1
Statistical analysis: Survival rates were evaluated using the Kaplan and Meier method and the significance was determined by the generalized Wilcoxon method. Differences between groups were analyzed by one-way analysis of variance. When the F ratio indicated significance, a Newman-Keul test was used to identify individual differences. A p value less than 0.05 was considered significant. Correlations between COL-3 concentration and survival, COL-3 concentration and MMP-2 and MMP-9 levels and levels of MMP-2 and MMP-9 and survival were determined by simple linear regression analysis.

[5] = test system: IL-8; assay: Porcine SMA+FC model: IL-8 concentration in BALF; set-up: species or system pigs; settings: pig, in vivo
From the text: as §4

[6] = test system: MMP-2; assay: Rat CLP model: lung tissue MMP-2 level by immunohistochemistry; format: in vivo, Sprague-Dawley rats
Method: as §1, §2

[7] = test system: Interleukin-1; assay: Porcine SMA+FC model: Interleukin-1 concentration in BALF; format: in vivo, pigs; settings: between groups
From the text: (§5) In addition, the protocol included a 3-day termination period, due to the severity of the ARDS associated with this model and the desire to obtain clinically relevant end-point data on all animals.

[8] = Porcine SMA+FC model: BALF protein concentration; set-up: species or system pigs; settings: pig, in vivo
From the text: as §5

[9] = test system: neutrophil elastase; assay: Porcine SMA+FC model: BALF elastase activity; set-up: species or system pigs; settings: pig, in vivo
From the text: as §4

[10] = test system: sepsis-induced ARDS (SMA+FC); assay: Porcine fecal clot + SMA clamping sepsis-induced ARDS model: pulmonary function
[11] = test system: lung tissue; assay: Porcine SMA+FC model: morphometric analysis of lung tissue and lung water; format: in vivo, pigs
From the text: as §4

[12] = test system: interleukin-6; assay: Porcine SMA+FC model: interleukin-6 concentration in BALF; set-up: species or system pigs; settings: pig, in vivo
From the text: as §4

[13] = test system: IL-10; assay: Porcine SMA+FC model: IL-10 concentration in BALF; set-up: species or system pigs; settings: pig, in vivo
From the text: as §5

[14] = Porcine SMA+FC model: blood COL-3 concentration
[15] = test system: lung tissue; assay: Rat CLP model: lung histology; format: in vivo, Sprague-Dawley rats
Method: as §3, §1
Histology: The lung tissue in each slide preparation was evaluated without knowledge of the treatment group from which it came. The slides were reviewed at low magnification for an overview to exclude sections containing bronchi, connective tissue, large blood vessels, and areas of confluent atelectasis, so that only regions reflecting the degree and stage of parenchymal injury would be evaluated. The areas of the slides which were not excluded were assessed at high magnification (400×) in the following manner. Five high power fields (HPF) were randomly sampled. […] Specifically, alveolar wall thickening, defined as greater than two cell layers thick, was graded as “0” (absent) or “1” (present) in each field. Intra-alveolar edema fluid, defined as homogenous or fibrillar proteinaceous staining within the alveoli, was graded as “0” (absent) or “1” (present) in each field. A total score/5HPF for alveolar wall thickening and intra-alveolar edema fluid was recorded for each animal. […]

[16] = test system: neutrophil elastase; settings: LPS-induced acute lung injury, guinea pig; cited from earlier work
[17] = single dose of two 100 mg minocycline HCl tablets, adult humans; cited from earlier work
[18] = 250 mg every six hours over a twenty-four hour period; cited from earlier work
[19] = test system: microbes; settings: based on steady-state pharmacokinetics; cited from earlier work
[20] = CLP+COL-3 (MD) vs CLP+CMC and CLP+COL-3 (SD)
[21] = COL-3 administration, dose dependent fashion, vs CLP+CMC
[22] = morphometric analysis of lung tissue

T1 sequence (A0A287AZD5 19-708): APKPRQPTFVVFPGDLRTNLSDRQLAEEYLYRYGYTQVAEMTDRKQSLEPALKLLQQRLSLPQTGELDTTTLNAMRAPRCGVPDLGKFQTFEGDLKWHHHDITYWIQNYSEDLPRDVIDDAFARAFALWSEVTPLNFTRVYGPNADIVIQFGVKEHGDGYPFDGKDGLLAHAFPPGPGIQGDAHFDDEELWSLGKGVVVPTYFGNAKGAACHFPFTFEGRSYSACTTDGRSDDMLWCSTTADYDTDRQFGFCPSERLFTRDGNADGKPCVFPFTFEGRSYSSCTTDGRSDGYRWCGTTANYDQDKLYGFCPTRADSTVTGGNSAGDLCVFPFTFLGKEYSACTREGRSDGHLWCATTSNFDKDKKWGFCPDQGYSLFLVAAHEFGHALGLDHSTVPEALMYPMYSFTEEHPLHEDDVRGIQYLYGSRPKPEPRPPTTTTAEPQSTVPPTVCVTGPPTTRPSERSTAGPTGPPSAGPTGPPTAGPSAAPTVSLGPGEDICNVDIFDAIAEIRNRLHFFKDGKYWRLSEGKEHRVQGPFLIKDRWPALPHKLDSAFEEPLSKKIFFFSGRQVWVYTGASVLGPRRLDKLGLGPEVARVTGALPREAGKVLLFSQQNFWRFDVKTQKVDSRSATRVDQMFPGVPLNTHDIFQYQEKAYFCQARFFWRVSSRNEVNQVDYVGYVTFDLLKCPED

NC(=O)C1=C(O)C[C@@H]2C[C@@H]3Cc4cccc(O)c4C(=O)C3=C(O)[C@]2(O)C1=O [COL-3, 6-demethyl-6-deoxy-4-de(dimethylamino)tetracycline]
MMP-9 in BALF [1]: inhibited
Lung water (W/D weight ratio) ([2]; CLP+COL-3 (MD), second dose at 24 hours post CLP): reduced edema to Sham CLP levels; also recorded: further reduced
Lung water (W/D weight ratio) ([2]; CLP+COL-3 (SD) vs CLP+CMC): significantly reduced
Lung water or edema ([2]; COL-3 administration, dose dependent manner, vs CLP+CMC): significantly reduced
Lung tissue level of MMP-9 [3, 20]: further reduced the level of MMP-9 to Sham CLP levels; also recorded: significantly reduced
Lung tissue level of MMP-9 ([3]; CLP+COL-3 (SD) vs CLP+CMC): reduced MMP-9 levels compared to the CLP+CMC group, but was not statistically significant
Alveolar tissue level of MMP-9 [3, 21]: significantly reduced
Seven day survival rate ([4]; CLP+COL-3 (MD), repeat dose at 24 hours post CLP, p<0.05 vs CLP+CMC and CLP+COL-3 (SD)): enhanced survival benefit
Mortality at 168 hours (7 days) ([4]; CLP+COL-3 (MD): 30 mg/kg at surgery and at 24 hours post CLP): 33%
Seven day survival rate ([4]; CLP+COL-3 (SD) vs CLP+CMC, p<0.05): significant improvement in survival
Mortality at 168 hours (7 days) ([4]; CLP+COL-3 (SD): single prophylactic dose 30 mg/kg oral gavage at surgery): 54%
Survival with delayed administration ([4]; COL-3 given as much as 12 hours following CLP): significantly improve survival
Survival of sham animals ([4]; Sham CLP+COL-3, 30 mg/kg oral gavage, 168 hours): all survived
Increase in IL-8 concentration in BALF [5]: blocked the increase
Lung tissue level of MMP-2 [6, 20]: further reduction
Lung tissue level of MMP-2 ([6]; CLP+COL-3 (SD) vs CLP+CMC): significantly reduced
Alveolar tissue level of MMP-2 [6, 21]: significantly reduced
Interleukin-1 concentration [7]: not significantly different
Decrease in bronchoalveolarlavage fluid (BALF) protein concentration [8]: 51%
Neutrophil elastase in BALF [9]: inhibited
Reduction in BALF elastase activity [9]: 87%
Improvement in A-a gradient ([10]; SMA+FC+COL-3 vs SMA+FC group): 64%
Improvement in lung plateau pressure ([10]; SMA+FC+COL-3 vs SMA+FC group): 52%
Improvement in pulmonary compliance ([10]; SMA+FC+COL-3 vs SMA+FC group): 344%
Increase in PaO2/FiO2 ratio ([10]; SMA+FC+COL-3 vs SMA+FC group): 204%
Reduction in pulmonary shunt fraction ([10]; SMA+FC+COL-3 vs SMA+FC group): 80%
Development of ARDS ([10]; lung compliance, PaO2/FiO2 ratio, shunt fraction, lung water, histology not significantly different from Control Group): completely prevented
Number of neutrophils sequestered in the lung ([11]; SMA+FC and SMA+FC+COL-3 groups vs Control Group, morphometric assessment): increased equally
Decrease in hyline membranes [11, 22]: 94%
Reduction in alveolar edema [11, 22]: 62%
Decrease in lung water ([11]; pig, in vivo): 41%
Increase in interleukin-6 concentration in BALF [12]: blocked the increase
Increase in IL-10 concentration in BALF [13]: blocked the increase
Blood COL-3 concentration ([14]; Day 1): 3.1 ± 0.3 µg/mL
Blood COL-3 concentration ([14]; Day 2): 4.9 ± 1.0 µg/mL
Blood COL-3 concentration ([14]; Day 3): 3.1 ± 1.0 µg/mL
Number of neutrophils sequestered in the lung ([15]; CLP+COL-3 (MD) vs CLP+CMC): no significant differences
Number of thickened alveolar walls ([15]; CLP+COL-3 (MD) vs CLP+CMC): significantly reduced
Intra-alveolar edema fluid ([15]; CLP+COL-3 (MD), second dose, vs CLP+CMC): significant reduction
Intra-alveolar edema fluid ([15]; CLP+COL-3 (SD) vs CLP+CMC): reduced in the CLP+COL-3 (SD) group as compared to the CLP+CMC group, but was not statistically significant
Number of neutrophils sequestered in the lung ([15]; CLP+COL-3 (SD) vs CLP+CMC): no significant differences
Number of thickened alveolar walls ([15]; CLP+COL-3 (SD) vs CLP+CMC): significantly reduced

CC(C)(C)C(=O)Oc1ccc(S(=O)(=O)Nc2ccccc2C(=O)NCC(=O)O)cc1 [ONO-5046, N-[2-[4-(2,2-dimethylpropionyloxy)-phenylsulfonylamino]benzoyl]aminoacetic acid]
Neutrophil elastase activity [16]: inhibits

CN(C)c1ccc(O)c2c1C[C@H]1C[C@H]3[C@H](N(C)C)C(O)=C(C(N)=O)C(=O)[C@@]3(O)C(O)=C1C2=O [minocycline HCl]
Average minocycline serum level [17]: 2.24 µg/mL

CN(C)[C@@H]1C(O)=C(C(N)=O)C(=O)[C@@]2(O)C(O)=C3C(=O)c4c(O)cccc4[C@@](C)(O)[C@H]3C[C@@H]12 [tetracycline HCl]
Peak plasma concentration [18]: approximately 3 μg/ml

CN(C)[C@@H]1C(O)=C(C(N)=O)C(=O)[C@@]2(O)C(O)=C3C(=O)c4c(O)cccc4[C@@](C)(O)[C@H]3C[C@@H]12 [tetracycline, Tetracycline]
Plasma antibiotic threshold level [19]: 0.5 µg/mL
